Test results published in patent US5149778A, “Cyclic peptides for treating herpes infections” (Bio-Mega, Inc., priority 1989, dated 1992).
Where a SMILES comes first, the peptide text is derived from it. Bridges are numbered along the chain shown (N, C = ends). [ ]: non-standard residue; d: D form. NMeV = CN[C@H](C(=O)O)C(C)C

biological target: T1, HSV-1 ribonucleotide reductase (Human herpesvirus 1, UniProt P08543); assay: Inhibition of Herpes Simplex Virus (HSV, type 1) ribonucleotide reductase; type: biochemical; conditions: partially purified enzyme from BHK-21/C13 cells infected with strain F HSV-1; relative to control without peptide; mean of four assays; read-out: IC50 (concentration of the peptide producing 50% of the maximal inhibition of enzyme activity)
T1 construct: obtained from quiescent BHK-21/C13 cells infected with strain F HSV-1 virus; endogenous in cells; host or cells: quiescent BHK-21/C13 cells infected with HSV-1 strain F (10 pfu/cell); partially purified viral enzyme
T1 sequence (P08543 whole entry): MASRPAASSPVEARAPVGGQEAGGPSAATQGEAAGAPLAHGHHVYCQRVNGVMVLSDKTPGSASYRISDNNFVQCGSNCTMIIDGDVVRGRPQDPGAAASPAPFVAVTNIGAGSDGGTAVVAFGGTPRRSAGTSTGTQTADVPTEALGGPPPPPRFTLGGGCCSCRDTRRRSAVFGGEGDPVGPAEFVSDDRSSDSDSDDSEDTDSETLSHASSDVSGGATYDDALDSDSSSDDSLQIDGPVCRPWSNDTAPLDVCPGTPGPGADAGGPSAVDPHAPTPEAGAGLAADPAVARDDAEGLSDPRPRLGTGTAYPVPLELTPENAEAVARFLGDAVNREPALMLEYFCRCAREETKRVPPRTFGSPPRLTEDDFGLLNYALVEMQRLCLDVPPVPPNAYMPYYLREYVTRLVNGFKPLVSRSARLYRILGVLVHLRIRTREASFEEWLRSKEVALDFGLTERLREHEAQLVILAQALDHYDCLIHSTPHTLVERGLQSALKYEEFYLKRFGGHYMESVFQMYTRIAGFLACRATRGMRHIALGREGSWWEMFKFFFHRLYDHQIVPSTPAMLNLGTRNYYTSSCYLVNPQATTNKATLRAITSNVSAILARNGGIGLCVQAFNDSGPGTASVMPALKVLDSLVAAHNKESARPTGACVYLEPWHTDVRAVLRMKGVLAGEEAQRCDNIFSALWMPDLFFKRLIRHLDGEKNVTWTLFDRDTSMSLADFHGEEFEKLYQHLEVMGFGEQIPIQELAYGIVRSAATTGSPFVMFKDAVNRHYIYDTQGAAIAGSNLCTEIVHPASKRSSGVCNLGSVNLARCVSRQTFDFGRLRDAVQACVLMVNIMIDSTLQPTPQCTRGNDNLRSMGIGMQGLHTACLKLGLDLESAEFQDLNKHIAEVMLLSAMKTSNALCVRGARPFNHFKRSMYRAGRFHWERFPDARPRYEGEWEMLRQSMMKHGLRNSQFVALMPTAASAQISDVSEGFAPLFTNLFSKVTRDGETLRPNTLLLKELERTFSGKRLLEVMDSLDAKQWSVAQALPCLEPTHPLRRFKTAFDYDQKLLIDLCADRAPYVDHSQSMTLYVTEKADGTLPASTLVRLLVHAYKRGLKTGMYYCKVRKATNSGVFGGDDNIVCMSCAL
Source text: Inhibition of Herpes Simplex Virus (HSV, type 1) Ribonucleotide Reductase
HSV-1 ribonucleotide reductase (partially purified) was obtained from quiescent BHK-21/C13 cells infected with strain F HSV-1 virus at 10 plaque forming units/cell as described by E. A. Cohen et al., J. Gen. Virol., 66, 733 (1985).
The procedure described by P. Gaudreau et al., J. Biol, Chem., 262, 12413 (1987) was employed. The assay result for each peptide is expressed as the concentration of the peptide producing 50% of the maximal inhibition (IC50) of enzyme activity. The number of units of the enzyme preparation used in each assay was constant, based on the specific activity of the enzyme preparation. The results are relative to the activity obtained in control experiments without peptide and represent the mean of four assays that varied less than 10% with each other.

Row | Structure (SMILES) | IC50 [µM]
1 | CC[C@H](C)[C@@H]1NC(=O)[C@H](C(C)C)NC(=O)[C@H](Cc2ccc(O)cc2)NC(=O)C[C@@H](C(=O)N[C@@H](CC(=O)O)C(=O)N[C@@H](CC(C)C)C(=O)O)NC1=O [example 1] (YVIDDL-OH; lactam N-4) | 14.3
2 | CC[C@H](C)[C@@H]1NC(=O)[C@H](C(C)C)NC(=O)[C@H]([C@@H](C)O)NC(=O)CNC(=O)[C@H](C)NC(=O)[C@H](Cc2ccc(O)cc2)NC(=O)C[C@@H](C(=O)N[C@@H](CC(=O)O)C(=O)N[C@@H](CC(C)C)C(=O)O)NC1=O [example 3] (YAGTVIDDL-OH; lactam N-7) | 16
3 | CC[C@H](C)[C@@H]1NC(=O)[C@H](C(C)C)N(C)C(=O)[C@H](Cc2ccc(O)cc2)NC(=O)C[C@@H](C(=O)N[C@@H](CC(=O)O)C(=O)N[C@@H](CC(C)C)C(=O)O)NC1=O [example 2] (Y[NMeV]IDDL-OH; lactam N-4) | 140
